pIC50: −log10 of the molar value. “And” between values parts separate entries of the source, which are not always exact repeats. Identical values can stand only once. “Also recorded” adds a separate entry of the source.
Columns and labels:
[1] = system: viral mRNA, vRNA and protein expression, rY40F-WSN virus; format: cell-based, influenza A virus
[2] = system: A/Wyoming/03/2003 (H3N2); test: microbe, parasite or virus in culture; format: cell-based; conditions: Influenza A virus, H3N2, A549, 24 h
[3] = system: A/Puerto Rico/8/1934 (H1N1); test: microbe, parasite or virus in culture; format: cell-based, influenza A virus; conditions: for pIC50: Influenza A virus, H1N1, A549, 24 h
[4] = system: A549 cells
[5] = system: influenza A/WSN/33 virus; format: cell-based
[6] = system: NP (A/WSN/33 infected A549 cells); format: cell-based, influenza A virus
[7] = system: A/California/04/2009 (H1N1); test: microbe, parasite or virus in culture; format: cell-based, influenza A virus; conditions: for pIC50: Influenza A virus, H1N1, A549
[8] = system: influenza A/WSN/33 virus; test: microbe, parasite or virus in culture; format: cell-based, influenza A virus (H1N1); conditions: MDCK
[9] = system: influenza A/WSN/33 virus; test: microbe, parasite or virus in culture; format: cell-based, influenza A virus (H1N1); conditions: for pIC50: Influenza A virus, H1N1|WSN, A549, 24 h
[10] = system: B/Brisbane/60/2008; test: microbe, parasite or virus in culture; format: cell-based; conditions: Influenza B virus, MDCK, 24 h
[11] = system: A/Vietnam/1203/2004 (H5N1-Halo) GFP virus; test: microbe, parasite or virus in culture; format: cell-based, influenza A virus; conditions: for pIC50: Influenza A virus, H5N1, read-out: H5N1 IC50
[12] = system: NP (A/WSN/33 infected A549 cells); format: cell-based, influenza A virus; remark: listed apart in the source
[13] = system: A/Puerto Rico/8/1934 (H1N1) virus expressing GFP; test: microbe, parasite or virus in culture; format: cell-based, influenza A virus; conditions: for pIC50: Influenza A virus, H1N1, read-out: PRS IC50
[14] = system: A/Vietnam/1203/2004 (H5N1); test: microbe, parasite or virus in culture; format: cell-based, influenza A virus; conditions: for pIC50: Influenza A virus, H5N1, A549
[15] = system: purified recombinant wild-type WSN NP protein; format: biochemical, influenza A/WSN/33 virus
[16] = system: viral mRNA, vRNA and protein expression, A/WSN/33; format: cell-based, influenza A virus
[17] = system: B/Yamagata/16/1988; test: microbe, parasite or virus in culture; format: cell-based; conditions: Influenza B virus, MDCK
[18] = system: A/Brisbane/59/2007-S (oseltamivir sensitive); test: microbe, parasite or virus in culture; format: cell-based; conditions: Influenza A virus, H1N1, A549, 24 h
[19] = system: A/Panama/2007/1999 (H3N2); test: microbe, parasite or virus in culture; format: cell-based, influenza A virus; conditions: for pIC50: Influenza A virus, H3N2, A549
[20] = system: vesicular stomatitis virus (VSV); format: cell-based
[21] = system: PR8-GFP virus; format: cell-based, influenza A virus
[22] = in vitro; conditions: human
[23] = in vitro; conditions: dog

| SMILES | inhibition of transcription and replication of rY40F-WSN virus [1] | pIC50 [2] | pIC50 [3] | effect on NP oligomer size [6] | effect on low molecular weight NP pool [6] | pIC50 [7] | pIC50 [9] | pIC50 [10] | pIC50 [11] | NP localization [12] | time of appearance of NP aggregates [12] | pIC50 [13] | pIC50 [14] | effect on NP oligomer ladder / low molecular weight band [15] | effect on low molecular weight NP band [15] | pIC50 [17] | pIC50 [18] | pIC50 [19] | further results |
| --- | --- | --- | --- | --- | --- | --- | --- | --- | --- | --- | --- | --- | --- | --- | --- | --- | --- | --- | --- |
| CC(C)(C)c1ccc(C(=O)Nc2ccc(NC(=O)c3ccc(C(C)(C)C)cc3)cc2)cc1 [S119, N,N′-(1,4-Phenylene)bis(4-(tert-butyl)benzamide)] | completely resistant | < 4.30 | < 4.30 | shift to smaller oligomers | distinct loss | 4.56 | 7.70 | < 4.30 | < 4.30 | NP translocation to the nucleus was delayed | not until the 24 h post-infection time point | < 4.30 | < 4.30 | low molecular weight band is completely lost | low molecular weight NP band is lost | < 4.30 | < 4.30 | < 4.30 | activity against strain [3]: ineffective; Cytotoxicity ([4]; A549 cells, concentrations as high as 500 μM): very little toxicity; effect on viral titer when added at 6 h after infection [5]: 1 log; virus inhibition when added 4 h after infection [5]: significant virus inhibition; virus inhibition when added before infection and up to 2 h after infection [5]: maximally inhibit; reduction in infectious titer [7]: 77%; pIC50 [8]: 7.22; reduction in WSN viral titers [9]: 4 log; antiviral activity on screened strain [11]: no detectable antiviral activity; antiviral activity on screened strain [13]: no detectable antiviral activity; activity against strain [14]: ineffective; NP protein levels [16]: moderately reduced; NS1 protein expression [16]: unaffected; mRNA expression from the NP segment [16]: severely reduced; mRNA expression from the NS segment [16]: slightly reduced; mRNA expression from the PB2 segment [16]: reduced to undetectable levels; vRNA from any segment [16]: could not be detected; activity against strain [19]: ineffective |
| CC(C)(C)c1ccc(NC(=O)c2ccc(C(C)(C)C)cc2)cc1 [S119-2, 4-(tert-butyl)-N-(4-(tert-butyl)phenyl)benzamide] |  |  |  |  |  |  |  |  | 4.35 |  |  | 4.86 |  |  |  |  |  |  |  |
| CC(C)(C)c1ccc(C(=O)Nc2ccc(Oc3ccccc3)cc2)cc1 [S119-3, 4-(tert-butyl)-N-(4-phenoxyphenyl)benzamide] |  |  |  |  |  |  |  |  | 4.76 |  |  | 4.94 |  |  |  |  |  |  |  |
| CC(C)(C)c1ccc(C(=O)Nc2cccc(NC(=O)c3ccc(C(C)(C)C)cc3)c2)cc1 [S119-6, N,N′-(1,3-phenylene)bis(4-(tert-butyl)benzamide)] |  |  |  |  |  |  |  |  | < 4.30 |  |  | < 4.30 |  |  |  |  |  |  |  |
| CC(C)(C)c1ccc(C(=O)Nc2ccc(Nc3ccccc3)cc2)cc1 [S119-8, 4-(tert-butyl)-N-(4-(phenylamino)-phenyl)benzamide] |  | 4.94 | 5.22 |  |  | 5.27 | 5.84 | 4.82 | 5.07 |  |  | 5.22 | 5.10 |  |  | 5.68 | 5.18 | 5.19 | inhibition of VSV [20]: did not inhibit; also recorded: does not inhibit; CC50 ([4]; human): 40.7 µM; combination index [21]: 0.79 and 0.57; type of interaction [21]: synergistic; also recorded: additive to slightly synergistic; CC50 ([22]; CC50): > 50 µM; CC50 ([22]; CC50 (50% cytotoxic concentration)): 66.1 µM; CC50 [23]: > 50 µM |
| Cc1onc(-c2ccccc2)c1C(=O)N1CCN(c2ccc([N+](=O)[O-])cc2Cl)CC1 [nucleozin, reference compound] | efficient inhibition |  |  | shift to smaller oligomers | distinct loss |  |  |  |  | NP remains exclusively in the cytoplasm | visible aggregates by 4 h post-infection |  |  | oligomer ladder becomes a smear | low molecular weight NP band is lost |  |  |  | mRNA, vRNA and viral protein expression from PB2, NP and NS segments [16]: complete loss |

Reference: PMC6145453 (ACS infectious diseases, 2018)
